Structures can show the parent of a compound that is named as a salt.
Target: human tryptase
Assay: Inhibition of human tryptase (apparent dissociation constant, chromogenic substrate tos-Gly-Pro-arg-pNA)
Type: biochemical
Conditions: apparent dissociation constant in presence of substrate; heparin 0.1–50 μg/ml; equilibrium conditions; read-out: Kiapp
Description: The documented pathophysiological effects of mast cell tryptase are caused directly by the enzymatic activity of the protease. Accordingly, they are reduced or blocked by inhibitors which inhibit the enzymatic activity of the tryptase. A suitable measure for the affinity of a reversible inhibitor to the target protease is the equilibrium dissociation constant Ki of the enzyme-inhibitor complex. This Ki value can be determined via the effect of the inhibitor on the tryptase-induced cleavage of a chromogenic peptide-p-nitroanilide substrate or a fluorogenic peptide-aminomethylcoumarin substrate.
The dissociation constants for the tryptase-inhibitor complexes are determined under equilibrium conditions in accordance with the general proposals of Bieth (Bieth J G, Pathophysiological Interpretation of kinetic constants of protease inhibitors, Bull. Europ. Physiopath. Resp. 16:183–195, 1980) and the methods of Sommerhoff et al. (Sommerhoff C P et al., A Kazal-type inhibitor of human mast cell tryptase: Isolation from the medical leech Hirudo medicinalis, characterization, and sequence analysis, Biol. Chem. Hoppe-Seyler 375: 685–694, 1994).
Human tryptase is isolated from lung tissue or prepared recombinantly; the specific activity of the protease, determined by titration, is usually greater than 85% of the theoretical value. In the presence of heparin (0.1–50 μg/ml) for stabilizing the protease, constant amounts of the tryptase are incubated with increasing amounts of the inhibitors. After an equilibrium between the reaction partners has formed, the remaining enzyme activity after addition of the peptide-p-nitroanilide substrate tos-Gly-Pro-argpNA is determined and the cleavage of the latter is monitored at 405 nm for 3 min. Alternatively, the remaining enzymatic activity can also be determined using fluorogenic substrates. The apparent dissociation constants Kiapp (i.e. in the presence of substrate) are subsequently determined by adapting the enzyme rates to the general equation for reversible inhibitors (Morrison J F, Kinetics of the reversible inhibition of enzyme-catalyzed reactions by tight-binding inhibitors, Biochim. Biophys. Acta 185, 269–286, 1969) using non-linear regression: V1/V0=1−{Et+It+Kiapp−[(Et+It+Kiapp)^2−4EtIt]^1/2}/2Et V1 and V0 are the rates in the presence and absence, respectively, of the inhibitor, and Et and It are the tryptase and inhibitor concentrations, respectively.
The apparent dissociation constants determined for the compounds according to the invention are shown in Table A below, where the numbers of the compounds correspond to the numbers of the compounds in the examples.

Ki [µM]	SMILES
0.032	NCc1ccc(CNC(=O)OCC#Cc2cccc(C#CCOC(=O)NCc3ccc(CN)cc3)c2)cc1 [Compound 5, 1,3-Bis-(4-aminomethylbenzylaminocarbonyl-1-oxyprop-2-ynyl)-benzene Dihydrochloride]
0.3	NCc1ccc(CNC(=O)OCC#Cc2ccccc2C#CCOC(=O)NCc2ccc(CN)cc2)cc1 [Compound 6, 1,2-Bis-(4-aminomethylbenzylaminocarbonyl-1-oxyprop-2-ynyl)-benzene Dihydrochloride]
0.12	NCc1ccc(CNC(=O)OCC#Cc2cscc2C#CCOC(=O)NCc2ccc(CN)cc2)cc1 [Compound 7, 3,4-Bis-(4-aminomethylbenzylaminocarbonyl-1-oxyprop-2-ynyl)-thiophene Dihydrochloride]
0.08	NCc1ccc(CNC(=O)OCC#Cc2ccc(C#CCOC(=O)NCc3ccc(CN)cc3)o2)cc1 [Compound 8, 2,5-Bis-(4-aminomethylbenzylaminocarbonyl-1-oxyprop-2-ynyl)-furan Dihydrochloride]
0.0075	NCc1cccc(CNC(=O)OCC#Cc2ccc(C#CCOC(=O)NCc3cccc(CN)c3)o2)c1 [Compound 9, 2,5-Bis-(3-aminomethylbenzylaminocarbonyl-1-oxyprop-2-ynyl)-furan Dihydrochloride]
0.15	NCc1cccc(CNC(=O)OCC#Cc2cscc2C#CCOC(=O)NCc2cccc(CN)c2)c1 [Compound 10, 3,4-Bis-(3-aminomethylbenzylaminocarbonyl-1-oxyprop-2-ynyl)-thiophene Dihydrochloride]
0.03	NCc1ccc(CNC(=O)COCC#Cc2ccc(C#CCOCC(=O)NCc3ccc(CN)cc3)cc2)cc1 [Compound 11, 1,4-Bis-(4-aminomethylbenzylaminocarbonylmethyl-1-oxyprop-2-ynyl)-benzene Dihydrochloride]
0.013	NCc1ccc(CNC(=O)COCC#Cc2cccc(C#CCOCC(=O)NCc3ccc(CN)cc3)c2)cc1 [Compound 12, 1,3-Bis-(4-aminomethylbenzylaminocarbonylmethyl-1-oxyprop-2-ynyl)-benzene Dihydrochloride]

Second part, the compound before the results:

SMILES	Ki [µM]
NCC1CCC(C(=O)N2CCN(C(=O)OCC#Cc3ccc(C#CCOC(=O)N4CCN(C(=O)C5CCC(CN)CC5)CC4)cc3)CC2)CC1 (stereo not drawn) [Compound 1, 1,4-Bis[4-(trans-4-aminomethylcyclohexylcarbonyl)-1-piperazinylcarbonyl-1-oxyprop-2-ynyl]benzene Dihydrochloride]	0.003
NCc1ccc(CNC(=O)N2CCN(C(=O)OCC#Cc3cccc(C#CCOC(=O)N4CCN(C(=O)NCc5ccc(CN)cc5)CC4)c3)CC2)cc1 [Compound 2, 1,3-Bis[4-(4-aminomethylbenzylaminocarbonyl)-1-piperazinylcarbonyl-1-oxyprop-2-ynyl]-benzene Dihydrochloride]	0.01
NC[C@H]1CC[C@H](C(=O)N2CCN(C(=O)OCC#Cc3ccccc3C#CCOC(=O)N3CCN(C(=O)[C@H]4CC[C@H](CN)CC4)CC3)CC2)CC1 [Compound 3, 1,2-Bis[4-(trans-4-aminomethylcyclohexylcarbonyl)-1-piperazinylcarbonyl-1-oxyprop-2-ynyl]benzene Dihydrochloride]	0.2
NCc1ccc(CNC(=O)N2CCN(C(=O)OCC#Cc3ccccc3C#CCOC(=O)N3CCN(C(=O)NCc4ccc(CN)cc4)CC3)CC2)cc1 [Compound 4, 1,2-Bis[4-(4-aminomethylbenzylaminocarbonyl)-1-piperazinylcarbonyl-1-oxyprop-2-ynyl]-benzene Dihydrochloride]	0.003
NCc1ccc(CC(=O)C#CC(N)c2ccc(C(N)C#CC(=O)Cc3ccc(CN)cc3)cc2)cc1 (centres unmarked) [Compound 13, 1,4-Bis-(4-aminomethylbenzylcarbonyl-1-aminoprop-2-ynyl)-benzene Dihydrochloride]	0.13
NCc1ccc(CC(=O)C#CC(N)c2ccccc2C(N)C#CC(=O)Cc2ccc(CN)cc2)cc1 (centres unmarked) [Compound 14, 1,2-Bis-(4-aminomethylbenzylcarbonyl-1-aminoprop-2-ynyl)-benzene Dihydrochloride]	0.33
